In PMC9281440, “In Vivo Distribution and Therapeutic Efficacy of Radioiodine-Labeled pH-Low Insertion Peptide Variant 3 in a Mouse Model of Breast Cancer” (Molecular Imaging, 2022):
Several values for one entry are separate records, joined by “and”; a condition that tells them apart may be missing. Equal entries are not always repeated. Where two headings read alike, the source gives them in different places. Peptide text beside a SMILES is read from it.

Experiments:
Assay type in all cases: in vivo, mouse
[1] = Micro-SPECT/CT imaging and distribution of 125I-labeled pHLIPs; details: female, mouse, total radioactivity, 3.7 MBq iv, micro-SPECT/CT ROI, mean ± SD, n = 4; for tissue uptake at 1 h: 1 h pi; for tissue uptake at 2 h: 2 h pi; for tissue uptake at 4 h: 4 h pi; for tissue uptake at 24 h: 24 h pi; for tissue uptake at 48 h: 48 h pi
Protocol: (§1) Five-week-old female athymic BALB/c nude mice (Shanghai Slaccas Experiment Animal Corp., Shanghai, China) were used in our study. Mouse xenograft models of MDA-MB-231, 4T1, and SK-BR-3 cells were produced by the subcutaneous injection of 5 × 10^6 cells (suspended in 150 μL PBS) into the right axilla of each mouse. The mice were used in subsequent experiments when tumor diameter reached 0.5-0.9 cm. The study protocol was approved by the institutional review board and by the Experimental Animal Center of Ruijin Hospital affiliated to the School of Medicine of Shanghai Jiao Tong University.
(§2) Three days before micro-SPECT/CT imaging, 300 μL of 1% Kl solution was administered to mice by oral gavage once a day, and 0.1% Kl was added into the drinking water to block thyroid gland activity. Mice-bearing MDA-MB-231, 4T1, or SK-BR-3 tumors were intravenously injected with 3.7 MBq of ^125I-WT-pHLIP or ^125I-Var3-pHLIP. Each group contained four mice. The mice were anesthetized by isoflurane inhalation, placed in the prone position, and scanned using a four-head SPECT/CT system (U-SPECT/CT, MI-Lab, Netherlands) and dedicated multipinhole apertures with a diameter of 1.5 mm at 1, 2, 4, 24, and 48 h after injection of ^125I-labeled peptides. CT images were acquired after static SPECT imaging (10 min/frame). The images were reconstructed using U-SPECT REC software and analyzed using PMOD software version 3.9 (Switzerland). Regions of interest (ROIs) were drawn in the tumors and organs, including the brain, heart, liver, lungs, kidneys, intestine, and bladder, at various time points. The radioactivity per gram (ID%/g) in the ROIs was measured to obtain the dynamic tumor-to-background ratio (TBR, muscle tissue was used as the background) and the in vivo distribution and kinetics of ^125I-WT-pHLIP and ^125I-Var3-pHLIP in the xenograft models of BC.

[2] = test system: MDA-MB-231 tumor-bearing nude mice; test: as above; details: MDA-MB-231 xenografts
Protocol: as §1, §2

[3] = test system: SK-BR-3 tumor-bearing nude mice; test: as above
Protocol: as §1, §2

[4] = BALB/c nude, bladder, MDA-MB-231 tumor-bearing nude mice, read-out: Distribution, Bladder
[5] = BALB/c nude, intestine, MDA-MB-231 tumor-bearing nude mice, read-out: Distribution, Intestine
[6] = BALB/c nude, muscle, MDA-MB-231 tumor-bearing nude mice, read-out: Distribution, Muscle
[7] = BALB/c nude, MDA-MB-231 tumor-bearing nude mice, read-out: Distribution, Tumor
[8] = BALB/c nude, SK-BR-3 tumor-bearing nude mice, read-out: Distribution, Tumor
[9] = athymic BALB/c nude, bladder, SK-BR-3 tumor-bearing nude mice, read-out: Distribution, Bladder
[10] = athymic BALB/c nude, brain, MDA-MB-231 tumor-bearing nude mice, read-out: Distribution, Brain
[11] = athymic BALB/c nude, brain, SK-BR-3 tumor-bearing nude mice, read-out: Distribution, Brain
[12] = athymic BALB/c nude, heart, MDA-MB-231 tumor-bearing nude mice, read-out: Distribution, Heart
[13] = athymic BALB/c nude, heart, SK-BR-3 tumor-bearing nude mice, read-out: Distribution, Heart
[14] = athymic BALB/c nude, intestine, SK-BR-3 tumor-bearing nude mice, read-out: Distribution, Intestine
[15] = athymic BALB/c nude, kidney, MDA-MB-231 tumor-bearing nude mice, read-out: Distribution, Kidney
[16] = athymic BALB/c nude, kidney, SK-BR-3 tumor-bearing nude mice, read-out: Distribution, Kidney
[17] = athymic BALB/c nude, liver, MDA-MB-231 tumor-bearing nude mice, read-out: Distribution, Liver
[18] = athymic BALB/c nude, liver, SK-BR-3 tumor-bearing nude mice, read-out: Distribution, Liver
[19] = athymic BALB/c nude, lung, MDA-MB-231 tumor-bearing nude mice, read-out: Distribution, Lung
[20] = athymic BALB/c nude, lung, SK-BR-3 tumor-bearing nude mice, read-out: Distribution, Lung
[21] = athymic BALB/c nude, muscle, SK-BR-3 tumor-bearing nude mice, read-out: Distribution, Muscle

CC(C)C[C@H](NC(=O)[C@H](Cc1ccc(O)c(I)c1)NC(=O)[C@H](C)NC(=O)[C@H](CCCNC(=N)N)NC(=O)[C@H](Cc1c[nH]c2ccccc12)NC(=O)[C@@H]1CCCN1C(=O)[C@H](CC(N)=O)NC(=O)[C@H](CCC(N)=O)NC(=O)[C@H](CC(=O)O)NC(=O)[C@H](CC(=O)O)NC(=O)[C@H](CS)NC(=O)[C@H](C)N)C(=O)N[C@@H](CC(=O)O)C(=O)N[C@@H](CC(C)C)C(=O)N[C@@H](CC(C)C)C(=O)N[C@@H](Cc1ccccc1)C(=O)N1CCC[C@H]1C(=O)N[C@H](C(=O)N[C@@H](CC(=O)O)C(=O)N[C@H](C(=O)N[C@@H](CC(C)C)C(=O)N[C@@H](CC(C)C)C(=O)N[C@@H](CC(C)C)C(=O)N[C@@H](CC(=O)O)C(=O)N[C@@H](CC(C)C)C(=O)N[C@@H](CC(C)C)C(=O)N[C@@H](Cc1c[nH]c2ccccc12)C(=O)N[C@@H](CCCCN)C(=O)O)[C@@H](C)O)[C@@H](C)O [125I-Var3-pHLIP] (HELM PEPTIDE1{A.C.D.D.Q.N.P.W.R.A.[O=C([C@H](Cc1ccc(O)c(I)c1)N[*:1])[*:2]].L.D.L.L.F.P.T.D.T.L.L.L.D.L.L.W.K}$$$$V2.0; N-terminus and C-terminus assumed)
tissue uptake at 1 h [1, 4]: 20.6 ± 5.71 %ID/g
tissue uptake at 2 h [1, 4]: 24.8 ± 3.51 %ID/g
tissue uptake at 4 h [1, 4]: 31.6 ± 15.9 %ID/g
tissue uptake at 24 h [1, 4]: 2.14 ± 0.88 %ID/g
tissue uptake at 48 h [1, 4]: 0.45 ± 0.14 %ID/g
tissue uptake at 1 h ([1]; BALB/c nude, brain, MDA-MB-231 tumor-bearing nude mice, read-out: Distribution, Brain): 1.02 ± 0.08 %ID/g
tissue uptake at 1 h [1, 5]: 2.59 ± 0.5 %ID/g
tissue uptake at 2 h [1, 5]: 3.18 ± 0.35 %ID/g
tissue uptake at 4 h [1, 5]: 2.12 ± 0.33 %ID/g
tissue uptake at 24 h [1, 5]: 0.2 ± 0.09 %ID/g
tissue uptake at 48 h [1, 5]: 0.1 ± 0.06 %ID/g
tissue uptake at 1 h [1, 6]: 1.12 ± 0.28 %ID/g
tissue uptake at 2 h [1, 6]: 0.96 ± 0.32 %ID/g
tissue uptake at 4 h [1, 6]: 0.67 ± 0.21 %ID/g
tissue uptake at 24 h [1, 6]: 0.09 ± 0.03 %ID/g
tissue uptake at 48 h [1, 6]: 0.04 ± 0.01 %ID/g
tissue uptake at 1 h [1, 7]: 3.16 ± 0.67 %ID/g
tissue uptake at 2 h [1, 7]: 3.76 ± 0.37 %ID/g
tissue uptake at 4 h [1, 7]: 3.09 ± 0.44 %ID/g
tissue uptake at 24 h [1, 7]: 0.47 ± 0.12 %ID/g
tissue uptake at 48 h [1, 7]: 0.22 ± 0.07 %ID/g
tissue uptake at 2 h [1, 8]: 2.94 ± 0.71 %ID/g
tissue uptake at 4 h [1, 8]: 2.45 ± 0.32 %ID/g
tissue uptake at 24 h [1, 8]: 0.26 ± 0.06 %ID/g
tissue uptake at 48 h [1, 8]: 0.18 ± 0.06 %ID/g
tissue uptake at 1 h [1, 9]: 18.2 ± 4.14 %ID/g
tissue uptake at 2 h [1, 9]: 18.7 ± 15.6 %ID/g
tissue uptake at 4 h [1, 9]: 23.4 ± 6.56 %ID/g
tissue uptake at 24 h [1, 9]: 2.44 ± 2.14 %ID/g
tissue uptake at 48 h [1, 9]: 0.21 ± 0.21 %ID/g
tissue uptake at 2 h [1, 10]: 1.13 ± 0.12 %ID/g
tissue uptake at 4 h [1, 10]: 0.75 ± 0.27 %ID/g
tissue uptake at 24 h [1, 10]: 0.13 ± 0.07 %ID/g
tissue uptake at 48 h [1, 10]: 0.09 ± 0.05 %ID/g
tissue uptake at 1 h [1, 11]: 1.02 ± 0.07 %ID/g
tissue uptake at 2 h [1, 11]: 0.95 ± 0.07 %ID/g
tissue uptake at 4 h [1, 11]: 0.68 ± 0.2 %ID/g
tissue uptake at 24 h [1, 11]: 0.09 ± 0.02 %ID/g
tissue uptake at 48 h [1, 11]: 0.09 ± 0.01 %ID/g
tissue uptake at 1 h [1, 12]: 9.47 ± 1.54 %ID/g
tissue uptake at 2 h [1, 12]: 8.29 ± 0.52 %ID/g
tissue uptake at 4 h [1, 12]: 5.35 ± 0.93 %ID/g
tissue uptake at 24 h [1, 12]: 0.39 ± 0.13 %ID/g
tissue uptake at 48 h [1, 12]: 0.14 ± 0.05 %ID/g
tissue uptake at 1 h [1, 13]: 10.3 ± 0.54 %ID/g
tissue uptake at 2 h [1, 13]: 8.89 ± 0.18 %ID/g
tissue uptake at 4 h [1, 13]: 6.02 ± 1.35 %ID/g
tissue uptake at 24 h [1, 13]: 0.38 ± 0.08 %ID/g
tissue uptake at 48 h [1, 13]: 0.1 ± 0.02 %ID/g
tissue uptake at 1 h [1, 14]: 3.05 ± 0.68 %ID/g
tissue uptake at 2 h [1, 14]: 3.01 ± 0.26 %ID/g
tissue uptake at 4 h [1, 14]: 2.38 ± 0.68 %ID/g
tissue uptake at 24 h [1, 14]: 0.31 ± 0.14 %ID/g
tissue uptake at 48 h [1, 14]: 0.07 ± 0.04 %ID/g
tissue uptake at 1 h [1, 15]: 5.66 ± 2.26 %ID/g
tissue uptake at 2 h [1, 15]: 5.61 ± 0.71 %ID/g
tissue uptake at 4 h [1, 15]: 3.8 ± 0.89 %ID/g
tissue uptake at 24 h [1, 15]: 0.41 ± 0.04 %ID/g
tissue uptake at 48 h [1, 15]: 0.25 ± 0.13 %ID/g
tissue uptake at 1 h [1, 16]: 6.67 ± 1.07 %ID/g
tissue uptake at 2 h [1, 16]: 4.24 ± 0.97 %ID/g
tissue uptake at 4 h [1, 16]: 3.56 ± 0.65 %ID/g
tissue uptake at 24 h [1, 16]: 0.42 ± 0.11 %ID/g
tissue uptake at 48 h [1, 16]: 0.18 ± 0.1 %ID/g
tissue uptake at 1 h [1, 17]: 10.3 ± 1.33 %ID/g
tissue uptake at 2 h [1, 17]: 10.2 ± 0.66 %ID/g
tissue uptake at 4 h [1, 17]: 8.11 ± 1.63 %ID/g
tissue uptake at 24 h [1, 17]: 1 ± 0.54 %ID/g
tissue uptake at 48 h [1, 17]: 0.4 ± 0.22 %ID/g
tissue uptake at 1 h [1, 18]: 11.4 ± 0.87 %ID/g
tissue uptake at 2 h [1, 18]: 10.4 ± 1.6 %ID/g
tissue uptake at 4 h [1, 18]: 11.4 ± 2.75 %ID/g
tissue uptake at 24 h [1, 18]: 0.81 ± 0.2 %ID/g
tissue uptake at 48 h [1, 18]: 0.23 ± 0.02 %ID/g
tissue uptake at 1 h [1, 19]: 9.64 ± 0.8 %ID/g
tissue uptake at 2 h [1, 19]: 9.1 ± 0.61 %ID/g
tissue uptake at 4 h [1, 19]: 6.6 ± 0.88 %ID/g
tissue uptake at 24 h [1, 19]: 0.49 ± 0.22 %ID/g
tissue uptake at 48 h [1, 19]: 0.18 ± 0.05 %ID/g
tissue uptake at 1 h [1, 20]: 9.81 ± 0.82 %ID/g
tissue uptake at 2 h [1, 20]: 9.31 ± 1.03 %ID/g
tissue uptake at 4 h [1, 20]: 6.93 ± 1.24 %ID/g
tissue uptake at 24 h [1, 20]: 0.42 ± 0.12 %ID/g
tissue uptake at 48 h [1, 20]: 0.14 ± 0.05 %ID/g
tissue uptake at 1 h [1, 21]: 1.33 ± 0.3 %ID/g
tissue uptake at 2 h [1, 21]: 1.21 ± 0.26 %ID/g
tissue uptake at 4 h [1, 21]: 0.7 ± 0.12 %ID/g
tissue uptake at 24 h [1, 21]: 0.06 ± 0.02 %ID/g
tissue uptake at 48 h [1, 21]: 0.04 ± 0.02 %ID/g
tissue uptake at 1 h ([1]; athymic BALB/c nude, SK-BR-3 tumor-bearing nude mice, read-out: Distribution, Tumor): 2.68 ± 1.34 %ID/g
time after injection at which radioactive count in xenografts peaked [2]: 2 h
Distribution, Tumor ([3]; SK-BR-3 tumor-bearing nude mice, 2 h pi, 3.7 MBq iv, micro-SPECT/CT ROI, mean ± SD, n = 4): 2.93 ± 0.71 %ID/g and 2.93 ± 0.70 %ID/g
time after injection at which radioactive count in xenografts peaked ([3]; SK-BR-3 xenografts): 2 h
